Measurements from ChEMBL document CHEMBL6115000, “Discovery of a first-in-class PROTAC degrader of histone lysine demethylase KDM4” (Eur J Med Chem, 2025).
The source made the active and inactive calls. The rule behind the calls is not given here.

Key:
[1] = Induction of apoptosis in human KYSE-150 cells assessed as late apoptotic cells at 333.3 nM incubated for 72 hrs by Annexin V-PE/7-AAD staining based flow cytometry (reference value: 5.98 %); assay type: functional
[2] = molecular target: T1, von Hippel-Lindau disease tumor suppressor/Lysine-specific demethylase 4C (Homo sapiens, UniProt Q9H3R0+P40337); test: PROTAC activity at VHL/KDM4C in human KYSE-150 cells assessed as induction of KDM4C degradation upto 1000 nM measured after 24 hrs by Western blot analysis relative to control; assay type: cell-based; details: KYSE-150 cell line
Target sequence in this assay (P40337 whole entry, looked up): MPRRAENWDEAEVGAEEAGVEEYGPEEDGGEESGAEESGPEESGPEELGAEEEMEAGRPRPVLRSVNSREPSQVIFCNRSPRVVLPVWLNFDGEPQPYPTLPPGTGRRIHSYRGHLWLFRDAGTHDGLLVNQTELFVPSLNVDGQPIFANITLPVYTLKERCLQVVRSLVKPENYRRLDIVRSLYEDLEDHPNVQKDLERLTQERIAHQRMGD
Target sequence in this assay (Q9H3R0 whole entry, looked up): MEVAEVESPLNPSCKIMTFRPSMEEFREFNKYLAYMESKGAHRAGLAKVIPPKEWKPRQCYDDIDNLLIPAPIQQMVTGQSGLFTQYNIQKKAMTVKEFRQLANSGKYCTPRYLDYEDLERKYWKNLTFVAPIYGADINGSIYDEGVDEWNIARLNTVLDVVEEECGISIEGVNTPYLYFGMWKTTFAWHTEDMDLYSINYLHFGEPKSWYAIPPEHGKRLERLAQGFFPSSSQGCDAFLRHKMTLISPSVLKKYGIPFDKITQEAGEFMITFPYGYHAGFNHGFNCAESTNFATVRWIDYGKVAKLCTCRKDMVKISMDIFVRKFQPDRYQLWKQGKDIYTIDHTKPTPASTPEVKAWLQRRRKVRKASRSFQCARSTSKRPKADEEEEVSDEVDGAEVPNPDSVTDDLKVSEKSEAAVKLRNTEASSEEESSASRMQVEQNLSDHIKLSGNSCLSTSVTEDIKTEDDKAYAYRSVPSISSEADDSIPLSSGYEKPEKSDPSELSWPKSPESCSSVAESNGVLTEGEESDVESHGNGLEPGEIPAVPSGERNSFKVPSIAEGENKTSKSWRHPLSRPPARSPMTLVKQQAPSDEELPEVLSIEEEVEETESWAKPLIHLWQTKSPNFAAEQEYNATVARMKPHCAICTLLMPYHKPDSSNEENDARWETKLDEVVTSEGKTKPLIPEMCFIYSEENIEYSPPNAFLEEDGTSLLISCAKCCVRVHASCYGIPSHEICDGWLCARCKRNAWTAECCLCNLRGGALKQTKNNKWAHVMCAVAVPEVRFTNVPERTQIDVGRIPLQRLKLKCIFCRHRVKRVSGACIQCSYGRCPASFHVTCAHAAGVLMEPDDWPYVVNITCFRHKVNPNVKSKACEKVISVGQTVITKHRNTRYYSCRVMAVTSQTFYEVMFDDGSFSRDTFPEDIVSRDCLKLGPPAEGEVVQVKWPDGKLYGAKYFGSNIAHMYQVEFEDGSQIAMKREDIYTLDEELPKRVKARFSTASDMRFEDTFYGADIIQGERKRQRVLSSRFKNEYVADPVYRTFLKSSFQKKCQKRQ

[3] = Induction of apoptosis in human KYSE-150 cells assessed as viable cells at 12.3 nM incubated for 72 hrs by Annexin V-PE/7-AAD staining based flow cytometry (reference value: 84.47 %); assay type: functional; details: read-out: Activity
[4] = molecular target: von Hippel-Lindau disease tumor suppressor/Lysine-specific demethylase 4D (Homo sapiens, UniProt Q6B0I6+P40337); test: PROTAC activity at VHL/KDM4D in human KYSE-150 cells assessed as induction of KDM4D degradation measured after 24 hrs by Western blot analysis; assay type: cell-based; details: kyse-150 cell line
von Hippel-Lindau disease tumor suppressor/Lysine-specific demethylase 4D, sequence (Q6B0I6 whole entry): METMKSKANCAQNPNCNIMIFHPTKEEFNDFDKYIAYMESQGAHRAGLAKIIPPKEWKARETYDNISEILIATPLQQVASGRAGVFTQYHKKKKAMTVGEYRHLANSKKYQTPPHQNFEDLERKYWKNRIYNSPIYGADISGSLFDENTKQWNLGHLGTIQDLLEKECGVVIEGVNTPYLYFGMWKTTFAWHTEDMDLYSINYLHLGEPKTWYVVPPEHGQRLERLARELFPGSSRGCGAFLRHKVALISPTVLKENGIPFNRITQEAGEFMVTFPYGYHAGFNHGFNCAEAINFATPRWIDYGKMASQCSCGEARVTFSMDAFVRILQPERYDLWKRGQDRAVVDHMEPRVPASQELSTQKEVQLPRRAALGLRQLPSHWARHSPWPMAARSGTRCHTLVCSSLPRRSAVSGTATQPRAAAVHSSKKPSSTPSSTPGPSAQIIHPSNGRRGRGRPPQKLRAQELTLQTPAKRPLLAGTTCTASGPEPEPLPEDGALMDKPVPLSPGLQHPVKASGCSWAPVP
von Hippel-Lindau disease tumor suppressor/Lysine-specific demethylase 4D, sequence (P40337 whole entry): as the sequence (P40337 whole entry, looked up) above

[5] = Induction of apoptosis in human KYSE-150 cells assessed as early apoptotic cells at 1000 nM incubated for 72 hrs by Annexin V-PE/7-AAD staining based flow cytometry (reference value: 5.27 %); assay type: functional
[6] = Induction of apoptosis in human KYSE-150 cells assessed as viable cells at 37 nM incubated for 72 hrs by Annexin V-PE/7-AAD staining based flow cytometry (reference value: 84.47 %); assay type: functional; details: read-out: Activity
[7] = Induction of cell cycle arrest in human KYSE-150 cells assessed as accumulation of cells at G2/M phase at 37 nM incubated for 24 hrs by flow cytometry (reference value: 21.64 %); assay type: functional
[8] = molecular target: T1, von Hippel-Lindau disease tumor suppressor/Lysine-specific demethylase 4C; test: PROTAC activity at VHL/KDM4C in human KYSE-150 cells assessed as induction of KDM4C degradation upto 1000 nM by Western blot analysis; assay type: cell-based; details: KYSE-150 cell line
Target sequence in this assay (P40337 whole entry, looked up): as above
Target sequence in this assay (Q9H3R0 whole entry, looked up): as the sequence (Q9H3R0 whole entry, looked up) above

[9] = molecular target: T2, von Hippel-Lindau disease tumor suppressor/Lysine-specific demethylase 4A (Homo sapiens, UniProt O75164+P40337); test: PROTAC activity at VHL/KDM4A in human KYSE-150 cells assessed as induction of KDM4A degradation at 1 uM incubated for 12 hrs by Western blot analysis relative to control; assay type: cell-based; details: KYSE-150 cell line
T2 sequence (O75164 2-1064 limits assumed): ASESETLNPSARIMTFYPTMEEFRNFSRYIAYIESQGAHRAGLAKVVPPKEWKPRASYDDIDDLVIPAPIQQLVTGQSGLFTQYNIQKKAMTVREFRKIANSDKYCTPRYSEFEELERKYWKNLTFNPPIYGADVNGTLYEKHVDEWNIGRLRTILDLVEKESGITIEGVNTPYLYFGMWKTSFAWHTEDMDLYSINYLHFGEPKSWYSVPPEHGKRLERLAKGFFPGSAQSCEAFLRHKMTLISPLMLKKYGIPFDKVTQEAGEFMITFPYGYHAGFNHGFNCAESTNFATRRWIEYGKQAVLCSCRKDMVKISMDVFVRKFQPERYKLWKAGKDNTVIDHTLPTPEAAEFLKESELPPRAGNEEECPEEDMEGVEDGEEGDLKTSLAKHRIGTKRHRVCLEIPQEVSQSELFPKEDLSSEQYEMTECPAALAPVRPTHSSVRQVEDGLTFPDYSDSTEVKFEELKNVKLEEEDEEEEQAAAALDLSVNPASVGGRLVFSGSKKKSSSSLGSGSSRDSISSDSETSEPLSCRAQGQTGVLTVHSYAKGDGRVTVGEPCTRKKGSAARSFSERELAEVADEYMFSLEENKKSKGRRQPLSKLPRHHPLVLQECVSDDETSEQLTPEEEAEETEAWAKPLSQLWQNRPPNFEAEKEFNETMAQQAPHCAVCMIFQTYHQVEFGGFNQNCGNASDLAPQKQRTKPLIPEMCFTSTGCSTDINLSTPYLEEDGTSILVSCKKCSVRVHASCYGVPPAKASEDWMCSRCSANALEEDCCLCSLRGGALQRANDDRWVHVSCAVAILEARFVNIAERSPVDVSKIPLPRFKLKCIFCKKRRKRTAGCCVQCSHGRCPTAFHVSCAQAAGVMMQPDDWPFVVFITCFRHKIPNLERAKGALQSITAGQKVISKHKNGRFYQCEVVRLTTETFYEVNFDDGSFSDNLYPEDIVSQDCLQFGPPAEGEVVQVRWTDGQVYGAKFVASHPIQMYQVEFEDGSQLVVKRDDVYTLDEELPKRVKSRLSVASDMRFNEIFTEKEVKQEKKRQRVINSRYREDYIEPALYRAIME
T2 sequence (P40337 whole entry partner): as the sequence (P40337 whole entry, looked up) above

[10] = Induction of apoptosis in human KYSE-150 cells assessed as early apoptotic cells at 12.3 nM incubated for 72 hrs by Annexin V-PE/7-AAD staining based flow cytometry (reference value: 5.27 %); assay type: functional
[11] = molecular target: T3, von Hippel-Lindau disease tumor suppressor/Lysine-specific demethylase 4B (Homo sapiens, UniProt P40337+O94953); test: PROTAC activity at VHL/KDM4B in human KYSE-150 cells assessed as induction of KDM4B degradation upto 1000 nM by Western blot analysis; assay type: cell-based; details: KYSE-150 cell line
Target sequence in this assay (O94953 whole entry, looked up): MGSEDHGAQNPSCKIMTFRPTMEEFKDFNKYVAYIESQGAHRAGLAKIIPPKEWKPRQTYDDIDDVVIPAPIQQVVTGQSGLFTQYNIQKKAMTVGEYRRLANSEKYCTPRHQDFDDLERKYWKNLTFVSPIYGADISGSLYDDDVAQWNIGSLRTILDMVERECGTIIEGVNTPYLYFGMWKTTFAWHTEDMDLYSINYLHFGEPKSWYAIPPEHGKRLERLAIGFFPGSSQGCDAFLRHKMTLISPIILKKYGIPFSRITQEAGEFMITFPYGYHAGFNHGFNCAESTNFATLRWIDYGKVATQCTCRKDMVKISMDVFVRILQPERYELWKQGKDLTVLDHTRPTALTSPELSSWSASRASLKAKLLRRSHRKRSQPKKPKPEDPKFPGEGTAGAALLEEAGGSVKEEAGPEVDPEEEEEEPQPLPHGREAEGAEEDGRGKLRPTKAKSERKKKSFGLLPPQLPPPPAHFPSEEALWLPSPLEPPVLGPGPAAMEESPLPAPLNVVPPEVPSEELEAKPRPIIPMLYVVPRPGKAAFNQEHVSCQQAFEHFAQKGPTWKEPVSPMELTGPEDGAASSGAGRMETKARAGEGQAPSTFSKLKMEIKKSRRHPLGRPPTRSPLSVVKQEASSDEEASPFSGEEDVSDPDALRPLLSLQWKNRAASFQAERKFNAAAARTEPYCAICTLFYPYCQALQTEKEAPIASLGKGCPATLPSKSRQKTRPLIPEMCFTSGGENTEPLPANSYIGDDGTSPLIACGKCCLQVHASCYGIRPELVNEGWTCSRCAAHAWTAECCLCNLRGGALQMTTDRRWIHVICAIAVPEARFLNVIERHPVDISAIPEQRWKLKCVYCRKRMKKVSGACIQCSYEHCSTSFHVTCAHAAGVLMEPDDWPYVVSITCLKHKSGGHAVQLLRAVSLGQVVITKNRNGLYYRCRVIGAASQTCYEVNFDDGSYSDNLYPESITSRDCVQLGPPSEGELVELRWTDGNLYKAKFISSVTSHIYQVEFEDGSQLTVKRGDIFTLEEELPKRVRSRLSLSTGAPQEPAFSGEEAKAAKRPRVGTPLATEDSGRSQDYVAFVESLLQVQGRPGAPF
Target sequence in this assay (P40337 whole entry, looked up): as the sequence (P40337 whole entry, looked up) above

[12] = molecular target: T1, von Hippel-Lindau disease tumor suppressor/Lysine-specific demethylase 4C; test: PROTAC activity at VHL/KDM4C in human KYSE-150 cells assessed as induction of KDM4C degradation measured after 24 hrs by Western blot analysis; assay type: cell-based
[13] = molecular target: T2, von Hippel-Lindau disease tumor suppressor/Lysine-specific demethylase 4A; test: PROTAC activity at VHL/KDM4A in human KYSE-150 cells assessed as induction of KDM4A degradation at 50 nM incubated for 24 hrs in presence of bortezomib by Western blot analysis; assay type: cell-based; details: KYSE-150 cell line
[14] = Induction of apoptosis in human KYSE-150 cells assessed as early apoptotic cells at 333.3 nM incubated for 72 hrs by Annexin V-PE/7-AAD staining based flow cytometry (reference value: 5.27 %); assay type: functional
[15] = Induction of cell cycle arrest in human KYSE-150 cells assessed as accumulation of cells at S pahse at 111.1 nM incubated for 24 hrs by flow cytometry (reference value: 13.15 %); assay type: functional
[16] = molecular target: T3, von Hippel-Lindau disease tumor suppressor/Lysine-specific demethylase 4B; test: PROTAC activity at VHL/KDM4B in human KYSE-150 cells assessed as induction of KDM4B degradation upto 1000 nM measured after 24 hrs by Western blot analysis relative to control; assay type: cell-based; details: KYSE-150 cell line
Target sequence in this assay (O94953 whole entry, looked up): as the sequence (O94953 whole entry, looked up) above
Target sequence in this assay (P40337 whole entry, looked up): as the sequence (P40337 whole entry, looked up) above

[17] = Induction of cell cycle arrest in human KYSE-150 cells assessed as accumulation of cells at G0/G1 phase at 12.3 nM incubated for 24 hrs by flow cytometry (reference value: 65.08 %); assay type: functional
[18] = Induction of cell cycle arrest in human KYSE-150 cells assessed as accumulation of cells at S pahse at 12.3 nM incubated for 24 hrs by flow cytometry (reference value: 13.15 %); assay type: functional
[19] = molecular target: T2, von Hippel-Lindau disease tumor suppressor/Lysine-specific demethylase 4A; test: PROTAC activity at VHL/KDM4A in human KYSE-150 cells assessed as induction of KDM4A degradation at 0.1 uM incubated for 12 hrs by Western blot analysis relative to control; assay type: cell-based; details: KYSE-150 cell line
[20] = Induction of cell cycle arrest in human KYSE-150 cells assessed as accumulation of cells at G2/M phase at 111.1 nM incubated for 24 hrs by flow cytometry (reference value: 21.64 %); assay type: functional
[21] = Induction of cell cycle arrest in human KYSE-150 cells assessed as accumulation of cells at S pahse at 37 nM incubated for 24 hrs by flow cytometry (reference value: 13.15 %); assay type: functional
[22] = molecular target: T3, von Hippel-Lindau disease tumor suppressor/Lysine-specific demethylase 4B; test: PROTAC activity at VHL/KDM4B in human KYSE-150 cells assessed as induction of KDM4B degradation measured after 24 hrs by Western blot analysis; assay type: cell-based
[23] = Induction of cell cycle arrest in human KYSE-150 cells assessed as accumulation of cells at G2/M phase at 333.3 nM incubated for 24 hrs by flow cytometry (reference value: 21.64 %); assay type: functional

In the case of `Cc1ncsc1-c1ccc([C@H](C)NC(=O)[C@@H]2C[C@@H](O)CN2C(=O)[C@@H](NC(=O)CCCCCCCCCOc2ccc(N(C)c3ccc4c(c3)OCC[C@H]4CNc3cnccc3C(=O)O)cc2)C(C)(C)C)cc1`, the Activity [1] is reported as 48.79%, the Emax [2] is reported as 77.8% and the viability at 0.0123 µM [3] is reported as 64.4%. For the same molecule, the DC50 [4] was over 1000 nM, the Activity [5] was 29.18% and the viability at 0.037 µM [6] was 30.6%. For the same molecule, the Activity [7] was 13.29%, the Activity [8] was “Time-dependent-effect” and the Activity [9] was 57.2%. For the same molecule, the Activity [10] was 10.63%, the Activity [11] was “Time-dependent-effect” and the Activity ([12]; KYSE-150 cell line) was “Dose-dependent-effect”. The DC50 ([12]; kyse-150 cell line) was 49.4 nM, the Activity [13] was “inactive” and the Activity [14] was 26.6%. It also gave an Activity [15] of 14.35%, an Emax [16] of 73.1% and an Activity [17] of 69.11%. For the same molecule, the Activity [18] was 14.42%, the Activity [19] was 44.9% and the Activity [20] was 12.48%. The Activity [21] was 14.84%, the Activity ([22]; KYSE-150 cell line) was “Dose-dependent-effect” and the DC50 ([22]; kyse-150 cell line) was 39.9 nM. For the same molecule, the Activity [23] was 13.01%.
